≈ marks a conversion by molar mass, not a printed value. Read-outs that look alike come from different tables or passages of the source.
Assays:
Sarcoma-180 cells = experiment: Antineoplastic activity, mice having Sarcoma-180 cells transplanted subcutaneously; type: in vivo, mouse (female, CDR strain); conditions: Mus musculus, Sarcoma-180, iv, 144 h, read-out: T/C (average tumor weight, dosed vs. solvent-dosed control); for response vs control in vivo at 0.25 mg/kg: i.v. 0.25 mg/kg single dose, tumor weighed six days after dosage
Procedure, shortened: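 Female CDR mice, 5–6 weeks, implanted subcutaneously with 3.6×10^6 to 5×10^6 Sarcoma-180 cells; next day a single tail-vein dose of compound in DMSO diluted with 10% Emulfore EL620. Tumors excised and weighed six days post-dose; efficacy expressed as T/C ratio of mean tumor weights versus solvent controls.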

Colon-26 cells = experiment: Antineoplastic activity, mice having Colon-26 cells transplanted subcutaneously; type: in vivo, mouse (female, CDF1 strain); conditions: Mus musculus, Colon 26, iv, 168 h, read-out: T/C (average tumor weight, dosed vs. solvent-dosed control); for response vs control in vivo at 0.25 mg/kg: i.v. 0.25 mg/kg single dose on sixth day, tumor weighed one week after dosage
Experimental: (§1) The test compound was dissolved in dimethylsulfoxide, and the solution was adequately diluted with 10% Emulfore EL620(produced by Rhone Poulenc Co.) to prepare the test compound solution. The antineoplastic activity was evaluated as below.
To the lateral region of a female mouse (CDF1 strain, 8 to 12 week age), 1×10^6 Colon-26 cells were transplanted subcutaneously. On the sixth day after the transplantation, the test medicine solution-was injected into the tail vein in a single dose. Seven to twelve mice were employed for the solvent-dosed control group, and five mice were employed for the dosed group. One week after the dosage, the tumor was cut out, and the weight thereof was measured. The antineoplastic effect was evaluated by the ratio (T/C) of the average tumor weight of the dosed group (T) to the average tumor weight of the solvent-dosed control group (C).

P388 cells = experiment: Antineoplastic activity, mice having P388 cells transplanted in abdominal cavity; type: in vivo, mouse (female, CDF1 strain); conditions: two mice, Cured: Survived for 60 days or longer
Experimental: as §1
To the abdominal cavity of a female mouse (CDF1 strain, 8 to 9 week age), 1×10^6 P388 cells were transplanted. Next day, the test medicine solution was injected intraperitonealy in a single dose. Five to eight mice were employed for the solvent-dosed control group, and two mice were employed for each of the dosed groups. The antineoplastic effect was evaluated by the ratio (T/C, %) of the average survival days of the dosed group (T) to the average survival days of the solvent-dosed control group(C). The T/C ratio of 130% or more is evaluated to be effective.
"Cured": Survived for 60 days or longer

[1] = system: P388 mouse leukemia cells; experiment: Activity against tumor cell growth (P388, MTT, 72 h); type: cell-based; conditions: read-out: IC50 (50% growth inhibition concentration)
Procedure, shortened: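 P388 cells at 1.5×10^5 cells/ml in RPMI1640 with 10% FBS, 2 mM glutamine and 5 μM 2-hydroxyethyldisulfide; DMSO-dissolved compound diluted in medium, 72 h at 37 °C, 5% CO2. MTT added for 3 h, formazan dissolved in HCl-isopropanol, A540 read. IC50 from absorbance ratio versus untreated cells.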

[2] = P388 mouse leukemia cells, 72 h, 37° C., MTT

Row | Compound | response vs control in vivo at 0.25 mg/kg (Sarcoma-180 cells) | response vs control in vivo at 0.25 mg/kg (Colon-26 cells) | T/C in words: cure (Survived for 60 days or longer) (P388 cells; i.p. 0.25 mg/kg single dose) | IC50 [1, 2] | T/C in words: cure (Survived for 60 days or longer) (P388 cells; i.p. 0.125 mg/kg single dose) | response vs control in vivo at 1 mg/kg (Sarcoma-180 cells) | response vs control in vivo at 1 mg/kg (Colon-26 cells) | T/C in words: cure (Survived for 60 days or longer) (P388 cells; i.p. 0.5 mg/kg single dose) | IC50 ([1]; Mus musculus, P388, 72 h) | response vs control in vivo at 0.5 mg/kg (Sarcoma-180 cells) | response vs control in vivo at 0.5 mg/kg (Colon-26 cells)
1 | COC(=O)c1c(C(F)(F)F)[nH]c2c1C13CC1CN(C(=O)c1cc4cc(NC(=O)c5cc6ccccc6[nH]5)ccc4[nH]1)C3=CC2=O (centres unmarked) [Example 23, Methyl 2-[5-[(1H-indol-2-ylcarbonyl)amino]-1H-indol-2-ylcarbonyl]-6-trifluoromethyl-1,2,8,8a-tetrahydrocyclopropa[c]pyrrolo[3,2-e]indole-4 (5H)-one-7-carboxylate] | 16% | 12% | Both cured | 0.00086 µg/mL (≈ 0.0014 µM) |  |  |  |  |  |  | 
2 | COC(=O)c1c(C(F)(F)F)[nH]c2c1C13CC1CN(C(=O)c1cc4cc(NC(=O)c5cc6ccccc6o5)ccc4[nH]1)C3=CC2=O (centres unmarked) [Example 24, Methyl 2-[5-[(benzofuran-2-ylcarbonyl)amino]-1H-indol-2-ylcarbonyl]-6-trifluoromethyl-1,2,8,8a-tetrahydrocyclopropa[c]pyrrolo[3,2-e]indole-4 (5H)-one-7-carboxylate] | 17% | 11% |  | 0.00053 µg/mL (≈ 0.000862 µM) | Both cured |  |  |  |  |  | 
3 | COC(=O)c1c(C(F)(F)F)[nH]c2c(OC(=O)N3CCN(C)CC3)cc3c(c12)C(CBr)CN3C(=O)c1cc2cc(OC)c(OC)c(OC)c2[nH]1 (centres unmarked) [Example 47, Methyl 1-bromomethyl-5-(4-methylpiperazin-1-ylcarbonyl)oxy-7-trifluoromethyl-3-(5,6,7-trimethoxy-1H-indol-2-ylcarbonyl)-1,2,3,6-tetrahydropyrrolo[3,2-e]indole-8-carboxylate] |  |  |  |  |  | 19% | 7% | Both cured | 0.031 µg/mL (≈ 0.0412 µM) |  | 
4 | COC(=O)c1c(C(F)(F)F)[nH]c2c(OC(=O)N3CCN(C)CC3)cc3c(c12)C(CCl)CN3C(=O)c1cc2cc(NC(=O)c3cc4ccccc4o3)ccc2[nH]1 (centres unmarked) [Example 48] |  |  |  |  |  | 8% | 6% | Both cured | 0.08 µg/mL (≈ 0.103 µM) |  | 
5 | COC(=O)c1c(C(F)(F)F)[nH]c2c(OC(=O)N3CCN(C)CC3)cc3c(c12)C(CBr)CN3C(=O)c1cc2cc(NC(=O)c3cc4ccccc4o3)ccc2[nH]1 (centres unmarked) [Example 49] |  |  |  |  |  |  |  | Both cured | 0.089 µg/mL (≈ 0.108 µM) | 12% | 9%
